Columns and labels:
[1] = target: 5-hydroxytryptamine receptor 2A (Homo sapiens, UniProt P28223); experiment: Displacement of [3H]-Ketanserin from 5HT2A receptor (unknown origin) measured after 90 mins by microbeta scintillation counting method
Histamine H1 receptor = Histamine H1 receptor (Homo sapiens, UniProt P35367); experiment: Displacement of [3H]-pyrilamine from human histamine H1 receptor expressed in stable HEK cell membranes after 90 mins by microbeta scintillation counting method
Histamine H2 receptor = Histamine H2 receptor (Homo sapiens, UniProt P25021); experiment: Displacement of [125I]-Iodo-aminopotentidine from human histamine H2 receptor expressed in stable HEK cell membranes after 90 mins by microbeta scintillation counting method
[2] = target: Muscarinic acetylcholine receptor M4 (Homo sapiens, UniProt P08173); experiment: Displacement of [3H]-QNB/[3H]-NMS from human muscarinic M4 receptor expressed in stable CHO cell membranes after 90 mins by microbeta scintillation counting method
Chain of Muscarinic acetylcholine receptor M4 (P08173 whole entry): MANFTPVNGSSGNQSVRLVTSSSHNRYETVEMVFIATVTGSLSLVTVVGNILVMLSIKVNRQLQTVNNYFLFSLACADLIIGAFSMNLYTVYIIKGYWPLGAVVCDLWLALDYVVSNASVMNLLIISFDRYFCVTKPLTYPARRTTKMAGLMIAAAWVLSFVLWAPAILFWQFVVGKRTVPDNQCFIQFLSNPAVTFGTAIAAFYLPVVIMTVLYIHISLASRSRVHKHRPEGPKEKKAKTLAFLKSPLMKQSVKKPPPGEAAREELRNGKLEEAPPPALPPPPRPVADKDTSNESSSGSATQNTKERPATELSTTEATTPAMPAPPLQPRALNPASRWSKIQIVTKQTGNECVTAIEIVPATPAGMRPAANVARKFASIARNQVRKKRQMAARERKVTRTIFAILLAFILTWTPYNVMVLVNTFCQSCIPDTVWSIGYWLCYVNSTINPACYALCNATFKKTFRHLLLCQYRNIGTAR

5HT1A receptor = 5HT1A receptor (Homo sapiens, UniProt P08908); experiment: Displacement of [3H]-Way100635 from recombinant human 5HT1A receptor stably expressed in CHO cell membranes at 10 uM measured after 90 mins by microbeta scintillation counting method relative to control; conditions: probe [3H]-Way100635
Chain of 5HT1A receptor (P08908 whole entry): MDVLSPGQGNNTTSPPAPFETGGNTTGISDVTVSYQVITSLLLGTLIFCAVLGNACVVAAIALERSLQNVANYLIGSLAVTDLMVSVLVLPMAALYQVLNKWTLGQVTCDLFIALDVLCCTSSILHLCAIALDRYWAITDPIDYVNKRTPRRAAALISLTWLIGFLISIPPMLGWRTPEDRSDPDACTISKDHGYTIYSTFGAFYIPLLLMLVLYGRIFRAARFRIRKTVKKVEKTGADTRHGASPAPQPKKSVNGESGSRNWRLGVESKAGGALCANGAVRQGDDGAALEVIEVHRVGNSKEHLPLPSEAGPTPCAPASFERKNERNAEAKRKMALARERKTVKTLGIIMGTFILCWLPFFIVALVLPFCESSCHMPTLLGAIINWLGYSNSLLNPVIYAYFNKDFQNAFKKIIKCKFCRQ

5HT1B receptor = 5HT1B receptor (Homo sapiens, UniProt P28222); experiment: Displacement of [3H]5-CT from recombinant human 5HT1B receptor stably expressed in HEK cell membranes at 10 uM measured after 90 mins by microbeta scintillation counting method relative to control; conditions: probe [3H]5-CT
Chain of 5HT1B receptor (P28222 whole entry): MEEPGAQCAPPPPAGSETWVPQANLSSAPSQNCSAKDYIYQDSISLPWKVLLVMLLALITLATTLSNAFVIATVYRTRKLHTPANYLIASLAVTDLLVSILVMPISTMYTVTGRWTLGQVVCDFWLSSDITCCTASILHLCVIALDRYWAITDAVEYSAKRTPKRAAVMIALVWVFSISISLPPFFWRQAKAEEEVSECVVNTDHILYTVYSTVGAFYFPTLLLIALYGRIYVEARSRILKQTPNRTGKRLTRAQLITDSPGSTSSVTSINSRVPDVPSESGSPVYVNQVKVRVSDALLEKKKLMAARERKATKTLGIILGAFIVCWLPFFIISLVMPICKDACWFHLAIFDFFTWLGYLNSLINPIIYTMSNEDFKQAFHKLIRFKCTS

5HT1D receptor = 5HT1D receptor (Homo sapiens, UniProt P28221); experiment: Displacement of [3H]5-CT from recombinant human 5HT1D receptor transiently expressed in HEKT cell membranes at 10 uM measured after 90 mins by microbeta scintillation counting method relative to control; conditions: probe [3H]5-CT
Chain of 5HT1D receptor (P28221 whole entry): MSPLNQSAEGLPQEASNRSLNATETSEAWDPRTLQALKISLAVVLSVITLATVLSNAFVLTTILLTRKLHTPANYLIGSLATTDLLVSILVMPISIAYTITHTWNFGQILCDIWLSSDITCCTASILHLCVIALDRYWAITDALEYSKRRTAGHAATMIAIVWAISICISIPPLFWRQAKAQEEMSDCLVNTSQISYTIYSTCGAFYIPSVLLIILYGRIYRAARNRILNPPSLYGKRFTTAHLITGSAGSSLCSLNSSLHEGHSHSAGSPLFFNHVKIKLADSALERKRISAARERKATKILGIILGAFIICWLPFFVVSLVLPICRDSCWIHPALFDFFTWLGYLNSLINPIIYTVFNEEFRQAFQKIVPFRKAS

5HT6 receptor = 5HT6 receptor (Homo sapiens, UniProt P50406); experiment: Displacement of [3H]-LSD from recombinant human 5HT6 receptor stably expressed in HEK cell membranes at 10 uM measured after 90 mins by microbeta scintillation counting method relative to control; conditions: probe [3H]-LSD
Chain of 5HT6 receptor (P50406 whole entry): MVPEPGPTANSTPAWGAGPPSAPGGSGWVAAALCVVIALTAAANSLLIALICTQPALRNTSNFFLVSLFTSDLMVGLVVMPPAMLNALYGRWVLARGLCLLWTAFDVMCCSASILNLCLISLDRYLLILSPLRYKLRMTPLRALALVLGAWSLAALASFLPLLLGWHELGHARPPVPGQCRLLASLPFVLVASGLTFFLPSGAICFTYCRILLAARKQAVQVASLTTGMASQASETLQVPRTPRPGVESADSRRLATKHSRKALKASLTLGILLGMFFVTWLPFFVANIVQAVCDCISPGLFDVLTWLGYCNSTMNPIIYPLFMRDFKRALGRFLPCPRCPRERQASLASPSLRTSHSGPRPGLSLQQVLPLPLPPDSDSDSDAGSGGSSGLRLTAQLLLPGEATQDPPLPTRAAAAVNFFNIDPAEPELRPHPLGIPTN

[3] = target: T1, Alpha-1D adrenergic receptor (Homo sapiens, UniProt P25100); experiment: Displacement of [3H]-prazosin from recombinant human alpha1D adrenergic receptor at 10 uM measured after 90 mins by microbeta scintillation counting method relative to control; conditions: probe [3H]-prazosin
T1 sequence (P25100 whole entry): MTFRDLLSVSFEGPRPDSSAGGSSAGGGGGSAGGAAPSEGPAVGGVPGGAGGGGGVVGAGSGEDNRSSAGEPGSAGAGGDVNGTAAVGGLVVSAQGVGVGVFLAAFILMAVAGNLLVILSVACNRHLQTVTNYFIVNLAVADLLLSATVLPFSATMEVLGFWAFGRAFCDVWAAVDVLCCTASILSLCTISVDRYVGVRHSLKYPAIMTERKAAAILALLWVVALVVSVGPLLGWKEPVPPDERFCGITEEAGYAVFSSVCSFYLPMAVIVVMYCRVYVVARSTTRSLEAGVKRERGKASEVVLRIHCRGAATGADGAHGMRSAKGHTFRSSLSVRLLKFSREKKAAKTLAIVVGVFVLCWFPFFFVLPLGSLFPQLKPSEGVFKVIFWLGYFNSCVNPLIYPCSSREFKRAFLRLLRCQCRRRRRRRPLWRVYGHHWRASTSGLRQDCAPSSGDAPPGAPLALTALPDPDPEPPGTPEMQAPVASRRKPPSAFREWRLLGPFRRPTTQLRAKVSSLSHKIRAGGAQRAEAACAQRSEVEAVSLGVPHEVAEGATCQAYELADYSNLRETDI

[4] = target: Alpha-2A adrenergic receptor (Homo sapiens, UniProt P08913); experiment: Displacement of [3H]-rauwolscine from recombinant human alpha2A adrenergic receptor stably expressed in MDCK cell membranes at 10 uM measured after 90 mins by microbeta scintillation counting method relative to control; conditions: probe [3H]-rauwolscine
Chain of Alpha-2A adrenergic receptor (P08913 whole entry): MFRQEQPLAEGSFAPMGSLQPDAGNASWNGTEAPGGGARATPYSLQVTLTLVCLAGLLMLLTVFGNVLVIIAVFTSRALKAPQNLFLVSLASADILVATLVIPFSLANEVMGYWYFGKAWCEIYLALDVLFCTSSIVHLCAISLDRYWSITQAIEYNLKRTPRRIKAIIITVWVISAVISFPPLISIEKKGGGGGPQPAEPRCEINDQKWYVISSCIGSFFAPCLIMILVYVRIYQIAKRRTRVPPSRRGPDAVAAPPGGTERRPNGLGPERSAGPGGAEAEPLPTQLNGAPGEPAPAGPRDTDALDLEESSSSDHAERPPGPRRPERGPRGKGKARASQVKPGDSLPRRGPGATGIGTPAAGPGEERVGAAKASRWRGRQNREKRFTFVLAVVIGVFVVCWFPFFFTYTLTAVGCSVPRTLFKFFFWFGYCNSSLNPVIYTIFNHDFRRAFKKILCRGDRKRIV

[5] = target: Alpha-2B adrenergic receptor (Homo sapiens, UniProt P18089); experiment: Displacement of [3H]-rauwolscine from recombinant human alpha2B adrenergic receptor transiently expressed in HEKT cell membranes at 10 uM measured after 90 mins by microbeta scintillation counting method relative to control; conditions: probe [3H]-rauwolscine
dopamine D5 receptor = dopamine D5 receptor (Homo sapiens, UniProt P21918); experiment: Displacement of [3H]-SCH23390 from recombinant human D5 receptor transiently expressed in HEKT cell membranes at 10 uM measured after 90 mins by microbeta scintillation counting method relative to control; conditions: probe [3H]-SCH23390
[6] = target: dopamine transporter (DAT) (Homo sapiens, UniProt Q01959); experiment: Displacement of [3H]-Win35428 from human DAT expressed in stable HEK cell membranes at 10 uM after 90 mins by microbeta scintillation counting method relative to control; conditions: stable HEK cell membranes expressing human DAT, probe [3H]-Win35428
Histamine H4 receptor = Histamine H4 receptor (Homo sapiens, UniProt Q9H3N8); experiment: Displacement of [3H]-Histamine from recombinant human histamine H4 receptor expressed in HEKT cell membranes at 10 uM measured after 90 mins by microbeta scintillation counting method relative to control; conditions: probe [3H]-Histamine
Chain of Histamine H4 receptor (Q9H3N8 whole entry): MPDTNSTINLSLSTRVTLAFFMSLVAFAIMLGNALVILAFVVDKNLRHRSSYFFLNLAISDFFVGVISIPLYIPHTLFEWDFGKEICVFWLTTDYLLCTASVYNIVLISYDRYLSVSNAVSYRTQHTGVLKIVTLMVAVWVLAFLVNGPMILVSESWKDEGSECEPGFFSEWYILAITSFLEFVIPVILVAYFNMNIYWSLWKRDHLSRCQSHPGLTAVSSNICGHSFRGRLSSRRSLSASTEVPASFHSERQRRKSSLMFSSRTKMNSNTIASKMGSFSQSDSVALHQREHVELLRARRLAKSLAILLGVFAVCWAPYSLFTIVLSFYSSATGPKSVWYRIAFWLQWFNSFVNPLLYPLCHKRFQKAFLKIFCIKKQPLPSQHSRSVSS

muscarinic M3 receptor = muscarinic M3 receptor (Homo sapiens, UniProt P20309); experiment: Displacement of [3H]-QNB/[3H]-NMS from human muscarinic M3 receptor expressed in stable CHO cell membranes at 10 uM after 90 mins by microbeta scintillation counting method relative to control; conditions: probe [3H]-QNB/[3H]-NMS
Chain of muscarinic M3 receptor (P20309 whole entry): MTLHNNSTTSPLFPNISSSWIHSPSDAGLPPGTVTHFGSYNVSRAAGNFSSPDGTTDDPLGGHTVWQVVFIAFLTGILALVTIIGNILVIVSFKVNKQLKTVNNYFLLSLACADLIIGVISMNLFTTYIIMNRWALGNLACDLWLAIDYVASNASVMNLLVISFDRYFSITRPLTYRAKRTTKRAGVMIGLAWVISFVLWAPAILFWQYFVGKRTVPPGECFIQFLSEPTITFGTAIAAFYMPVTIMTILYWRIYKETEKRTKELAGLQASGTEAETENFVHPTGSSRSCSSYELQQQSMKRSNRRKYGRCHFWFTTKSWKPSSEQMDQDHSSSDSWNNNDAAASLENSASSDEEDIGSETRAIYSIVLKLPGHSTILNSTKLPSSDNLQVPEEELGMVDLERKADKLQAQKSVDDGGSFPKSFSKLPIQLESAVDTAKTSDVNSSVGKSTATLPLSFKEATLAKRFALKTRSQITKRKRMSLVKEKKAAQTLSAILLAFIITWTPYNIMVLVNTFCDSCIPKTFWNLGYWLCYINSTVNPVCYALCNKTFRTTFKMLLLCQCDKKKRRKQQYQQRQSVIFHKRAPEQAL

muscarinic M5 receptor = muscarinic M5 receptor (Homo sapiens, UniProt P08912); experiment: Displacement of [3H]-QNB/[3H]-NMS from human muscarinic M5 receptor expressed in stable CHO cell membranes at 10 uM after 90 mins by microbeta scintillation counting method relative to control; conditions: probe [3H]-QNB/[3H]-NMS
[7] = target: serotonin transporter (SERT) (Homo sapiens, UniProt P31645); experiment: Displacement of [3H]-citalopram from human SERT receptor expressed in stable HEK cell membranes at 10 uM after 90 mins by microbeta scintillation counting method relative to control; conditions: stable HEK cell membranes expressing human SERT, probe [3H]-citalopram
sigma1 receptor = sigma1 receptor (Homo sapiens, UniProt Q99720); experiment: Displacement of [3H]-pentazocine from sigma1 receptor (unknown origin) at 10 uM after 90 mins by microbeta scintillation counting method relative to control; conditions: probe [3H]-pentazocine
Chain of sigma1 receptor (Q99720 whole entry): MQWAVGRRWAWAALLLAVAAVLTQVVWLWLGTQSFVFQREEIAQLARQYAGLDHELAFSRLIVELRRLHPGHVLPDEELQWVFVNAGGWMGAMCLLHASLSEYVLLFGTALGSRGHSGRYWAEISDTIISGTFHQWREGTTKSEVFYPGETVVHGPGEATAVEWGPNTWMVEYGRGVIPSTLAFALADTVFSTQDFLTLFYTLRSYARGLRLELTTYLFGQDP

Chain of Histamine H1 receptor (P35367 whole entry): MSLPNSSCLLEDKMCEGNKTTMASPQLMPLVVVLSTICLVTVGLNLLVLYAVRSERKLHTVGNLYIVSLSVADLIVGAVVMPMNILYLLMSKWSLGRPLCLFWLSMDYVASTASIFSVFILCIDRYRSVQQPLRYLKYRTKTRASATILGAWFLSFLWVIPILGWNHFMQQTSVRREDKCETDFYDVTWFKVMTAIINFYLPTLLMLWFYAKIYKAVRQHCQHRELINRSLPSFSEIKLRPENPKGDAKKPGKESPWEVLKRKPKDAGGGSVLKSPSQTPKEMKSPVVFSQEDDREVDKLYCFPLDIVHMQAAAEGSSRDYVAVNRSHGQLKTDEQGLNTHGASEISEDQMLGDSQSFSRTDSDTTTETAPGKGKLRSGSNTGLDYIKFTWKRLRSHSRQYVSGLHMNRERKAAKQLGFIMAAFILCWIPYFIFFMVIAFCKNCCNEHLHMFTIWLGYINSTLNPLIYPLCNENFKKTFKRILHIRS
Chain of 5-hydroxytryptamine receptor 2A (P28223 whole entry): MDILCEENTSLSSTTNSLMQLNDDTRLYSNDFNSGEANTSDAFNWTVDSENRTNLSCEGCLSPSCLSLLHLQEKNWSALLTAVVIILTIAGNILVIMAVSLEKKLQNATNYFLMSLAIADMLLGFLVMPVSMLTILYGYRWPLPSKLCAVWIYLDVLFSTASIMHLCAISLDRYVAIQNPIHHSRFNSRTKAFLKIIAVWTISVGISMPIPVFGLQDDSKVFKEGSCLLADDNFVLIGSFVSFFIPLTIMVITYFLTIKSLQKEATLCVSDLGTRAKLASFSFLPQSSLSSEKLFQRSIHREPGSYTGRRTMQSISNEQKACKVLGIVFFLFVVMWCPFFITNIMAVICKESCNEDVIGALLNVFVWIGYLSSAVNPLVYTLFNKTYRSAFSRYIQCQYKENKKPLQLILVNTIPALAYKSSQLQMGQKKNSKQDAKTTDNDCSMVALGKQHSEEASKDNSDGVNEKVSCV

Question: With `CCCN(CC[C@]1(O)C[C@H](NC(=O)c2ccc3ccccc3c2)C1)[C@H]1CCc2nc(N)sc2C1` as the compound, how does the Ki ([1]; read-out: Ki) read?
Answer: 2.84 µM

Question: And the Ki (Histamine H1 receptor; read-out: Ki)?
Answer: 0.11 µM

Question: What about the Ki (Histamine H2 receptor) of the same compound?
Answer: 0.224 µM

Question: And the Ki ([2]; read-out: Ki)?
Answer: 2.28 µM

Question: And the inhibition at […], 10 µM (5HT1A receptor)?
Answer: > 50%

Question: What about the inhibition at […], 10 µM (5HT1B receptor) of the same compound?
Answer: < 50%

Question: What about the inhibition at […], 10 µM (5HT1D receptor) of the same compound?
Answer: < 50%

Question: What about the inhibition at […], 10 µM (5HT6 receptor) of the same compound?
Answer: < 50%

Question: What about the inhibition at […], 10 µM [3] of the same compound?
Answer: > 50%

Question: And the inhibition at […], 10 µM [4]?
Answer: < 50%

Question: What about the inhibition at […], 10 µM [5] of the same compound?
Answer: < 50%

Question: And the inhibition at […], 10 µM (dopamine D5 receptor)?
Answer: < 50%

Question: What about the inhibition at […], 10 µM [6] of the same compound?
Answer: > 50%

Question: What about the inhibition at […], 10 µM (Histamine H4 receptor) of the same compound?
Answer: < 50%

Question: What about the inhibition at […], 10 µM (muscarinic M3 receptor) of the same compound?
Answer: < 50%

Question: And the inhibition at […], 10 µM (muscarinic M5 receptor)?
Answer: > 50%

Question: What about the inhibition at […], 10 µM [7] of the same compound?
Answer: > 50%

Question: And the inhibition at […], 10 µM (sigma1 receptor)?
Answer: > 50%

Question: For `CCCN[C@H]1CCc2nc(N)sc2C1` [PRAMIPEXOLE], which Ki [1] is on record?
Answer: Not Active

Question: What about the Ki (Histamine H1 receptor) of the same compound?
Answer: Not Active

Question: What about the Ki (Histamine H2 receptor) of the same compound?
Answer: 2.68 µM

Question: What about the Ki ([2]; cho) of the same compound?
Answer: Not Active

Question: And the inhibition at […], 10 µM (5HT1A receptor)?
Answer: > 50%

Question: What about the inhibition at […], 10 µM (5HT1B receptor) of the same compound?
Answer: > 50%

Question: What about the inhibition at […], 10 µM (5HT1D receptor) of the same compound?
Answer: > 50%

Question: And the inhibition at […], 10 µM (5HT6 receptor)?
Answer: > 50%

Question: What about the inhibition at […], 10 µM [3] of the same compound?
Answer: < 50%

Question: And the inhibition at […], 10 µM [4]?
Answer: > 50%

Question: And the inhibition at […], 10 µM [5]?
Answer: > 50%

Question: And the inhibition at […], 10 µM (dopamine D5 receptor)?
Answer: > 50%

Question: What about the inhibition at […], 10 µM [6] of the same compound?
Answer: < 50%

Question: And the inhibition at […], 10 µM (Histamine H4 receptor)?
Answer: > 50%

Question: What about the inhibition at […], 10 µM (muscarinic M3 receptor) of the same compound?
Answer: > 50%

Question: And the inhibition at […], 10 µM (muscarinic M5 receptor)?
Answer: < 50%

Question: And the inhibition at […], 10 µM [7]?
Answer: < 50%

Question: What about the inhibition at […], 10 µM (sigma1 receptor) of the same compound?
Answer: > 50%
